The record followed here is patent US7928098B2, “Therapeutic and/or preventive agents for a sleep disorder” (Kyowa Hakko Kirin Co., Ltd., priority 2005, dated 2011).

Molecules are shown by their SMILES. Where only a bound is given, the exact number is not on record here.

The melting point is the temperature of the solid-liquid transition. On to `N#Cc1ccc(C(=O)Nc2nc(-c3ccco3)c(C(=O)c3cccnc3)s2)cc1` [Compound 213, 4-Cyano-N-[4-(2-furyl)-5-(pyridin-3-ylcarbonyl)thiazol-2-yl]benzamide], for which the melting point is 288 to 290 °C. As for `O=C(Nc1nc(-c2ccco2)c(C(=O)c2cccnc2)s1)c1ccco1` [Compound 214, N-[4-(2-Furyl)-5-(pyridin-3-ylcarbonyl)thiazol-2-yl]furan-2-carboxamide], the figure is 234 to 236 °C. As for `Cc1ncccc1C(=O)c1sc(NC(=O)c2ccncc2)nc1-c1ccco1` [Compound 217, N-[4-(2-Furyl)-5-(2-methylpyridin-3-ylcarbonyl)thiazol-2-yl]pyridine-4-carboxamide], the figure is 230 to 234 °C. `Cc1ccc(C(=O)c2sc(NC(=O)c3ccncc3)nc2-c2ccco2)cn1` [Compound 220, N-[4-(2-Furyl)-5-(2-methylpyridin-5-ylcarbonyl)thiazol-2-yl]pyridine-4-carboxamide]: the melting point is 230 to 232 °C (dec.). The figure for `Cc1ccc(C(=O)c2sc(NC(=O)c3ccc(C#N)cc3)nc2-c2ccco2)cn1` [Compound 221, 4-Cyano-N-[4-(2-furyl)-5-(2-methylpyridin-5-ylcarbonyl)thiazol-2-yl]benzamide] is 261 to 265 °C; for `Cc1ccc(C(=O)c2sc(NC(=O)c3ccco3)nc2-c2ccco2)cn1` [Compound 222, N-[4-(2-Furyl)-5-(2-methylpyridin-5-ylcarbonyl)thiazol-2-yl]furan-2-carboxamide] it is 197 to 209 °C.

Consider `Cc1ccc(C(=O)c2sc(NC(=O)c3ccoc3)nc2-c2ccco2)cn1` [Compound 223, N-[4-(2-Furyl)-5-(2-methylpyridin-5-ylcarbonyl)thiazol-2-yl]furan-3-carboxamide], for which the melting point lay within 229 to 231 °C. Take `COc1ccc(C(=O)c2sc(NC(=O)c3ccncc3)nc2-c2ccco2)cn1` [Compound 226, N-[4-(2-Furyl)-5-(2-methoxypyridin-5-ylcarbonyl)thiazol-2-yl]pyridine-4-carboxamide]: the melting point is 246 to 257 °C (dec.). As for `CN(C)c1ccc(C(=O)c2sc(NC(=O)c3ccncc3)nc2-c2ccco2)cn1` [Compound 230, N-{5-[2-(Dimethylamino)pyridin-5-ylcarbonyl]-4-(2-furyl)thiazol-2-yl}pyridine-4-carboxamide], the melting point is 260 to 265 °C (dec.). The figure for `O=C(Nc1nc(-c2ccco2)c(C(=O)c2ccc(N3CCOCC3)nc2)s1)c1ccncc1` [Compound 231, N-[4-(2-Furyl)-5-(2-morpholinopyridin-5-ylcarbonyl)thiazol-2-yl]pyridine-4-carboxamide] is 195 to 220 °C; for `CN1CCN(c2ccc(C(=O)c3sc(NC(=O)c4ccncc4)nc3-c3ccco3)cn2)CC1` [Compound 232, N-{4-(2-Furyl)-5-[2-(4-methylpiperazin-1-yl)pyridin-5-ylcarbonyl]thiazol-2-yl}pyridine-4-carboxamide] it is 195 to 205 °C; for `O=C(Nc1nc(-c2ccco2)c(C(=O)c2ccc(N3CCC(O)CC3)nc2)s1)c1ccncc1` [Compound 233, N-{4-(2-Furyl)-5-[2-(4-hydroxypiperidino)pyridin-5-ylcarbonyl]thiazol-2-yl}pyridine-4-carboxamide] it is 264 to 268 °C. As to `O=C(Nc1nc(-c2ccco2)c(C(=O)c2ccncc2)s1)c1ccncc1` [Compound 236, N-[4-(2-Furyl)-5-(pyridin-4-ylcarbonyl)thiazol-2-yl]pyridine-4-carboxamide], the melting point lay within 276 to 285 °C. `Cc1cc(C(=O)c2sc(NC(=O)c3ccncc3)nc2-c2ccco2)ccn1` [Compound 239, N-[4-(2-Furyl)-5-(2-methylpyridin-4-ylcarbonyl)thiazol-2-yl]pyridine-4-carboxamide] registered a melting point of 223 to 225 °C. In turn, `Cc1cc(C(=O)Nc2nc(-c3ccco3)c(C(=O)c3ccnc(C)c3)s2)ccn1` [Compound 240, N-[4-(2-Furyl)-5-(2-methylpyridin-4-ylcarbonyl)thiazol-2-yl]-2-methylpyridine-4-carboxamide] came in with a melting point of 205 to 229 °C. The figure for `COc1cc(C(=O)c2sc(NC(=O)c3ccncc3)nc2-c2ccco2)ccn1` [Compound 243, N-[4-(2-Furyl)-5-(2-methoxypyridin-4-ylcarbonyl)thiazol-2-yl]pyridine-4-carboxamide] is 237 to 239 °C. Consider `O=C(Nc1nc(-c2ccco2)c(C(=O)c2ccnc(N3CCOCC3)c2)s1)c1ccncc1` [Compound 246, N-[4-(2-Furyl)-5-(2-morpholinopyridin-4-ylcarbonyl)thiazol-2-yl]pyridine-4-carboxamide], for which the melting point lay in the range of 270 to 273 °C.

For `O=C(Nc1nc(-c2ccco2)c(C(=O)c2ccco2)s1)c1ccncc1` [Compound 249, N-[4-(Furan-2-yl)-5-(furan-2-ylcarbonyl)thiazol-2-yl]pyridine-4-carboxamide], the melting point is 245 to 248 °C. Regarding `Cc1ccc(C(=O)c2sc(NC(=O)c3ccncc3)nc2-c2ccco2)o1` [Compound 250, N-[4-(2-Furyl)-5-(5-methylfuran-2-ylcarbonyl)thiazol-2-yl]pyridine-4-carboxamide], the melting point is 185 to 189 °C. In turn, `O=C(Nc1nc(-c2ccco2)c(C(=O)c2ccoc2)s1)c1ccncc1` [Compound 253, N-[4-(Furan-2-yl)-5-(furan-3-ylcarbonyl)thiazol-2-yl]pyridine-4-carboxamide] yielded a melting point of 217 to 231 °C. `O=C(Nc1nc(-c2ccco2)c(C(=O)c2cccs2)s1)c1ccncc1` [Compound 254, N-[4-(2-Furyl)-5-(thiophen-2-ylcarbonyl)thiazol-2-yl]-pyridine-4-carboxamide] yielded a melting point of 208 to 210 °C. As for `O=C(Nc1nc(-c2ccco2)c(C(=O)c2nccs2)s1)c1ccncc1` [Compound 255, N-[4-(2-Furyl)-5-(thiazol-2-ylcarbonyl)thiazol-2-yl]pyridine-4-carboxamide], the melting point was 228 to 240 °C. For `Cc1cnc(C(=O)c2sc(NC(=O)c3ccncc3)nc2-c2ccco2)s1` [Compound 256, N-[4-(2-Furyl)-5-(5-methylthiazol-2-ylcarbonyl)thiazol-2-yl]pyridine-4-carboxamide], the melting point was 275 to 277 °C (dec.).

The compound `Cc1csc(C(=O)c2sc(NC(=O)c3ccncc3)nc2-c2ccco2)n1` [Compound 257, N-[4-(2-Furyl)-5-(4-methylthiazol-2-ylcarbonyl)thiazol-2-yl]pyridine-4-carboxamide] had a melting point of 250 to 255 °C.

Turning to `Cc1nc(C(=O)c2sc(NC(=O)c3ccncc3)nc2-c2ccco2)sc1C` [Compound 258, N-[5-(4,5-Dimethylthiazol-2-ylcarbonyl)-4-(2-furyl)thiazol-2-yl]pyridine-4-carboxamide], the melting point was 270 to 272 °C (dec.). The compound `O=C(Nc1nc(-c2ccco2)c(C(=O)c2cc[nH]c2)s1)c1ccncc1` [Compound 260, N-[4-(2-Furyl)-5-(pyrrol-3-ylcarbonyl)thiazol-2-yl]pyridine-4-carboxamide] returned a melting point of 259 to 260 °C.

In the case of `Cn1ccc(C(=O)c2sc(NC(=O)c3ccncc3)nc2-c2ccco2)c1` [Compound 261, N-[4-(2-Furyl)-5-(1-methylpyrrol-3-ylcarbonyl)thiazol-2-yl]pyridine-4-carboxamide], the melting point was in the range of 209 to 211 °C.

For `CCn1ccc(C(=O)c2sc(NC(=O)c3ccncc3)nc2-c2ccco2)c1` [Compound 262, N-[5-(1-Ethylpyrrol-3-ylcarbonyl)-4-(2-furyl)thiazol-2-yl]pyridine-4-carboxamide], the melting point lay within 127 to 134 °C. On to `O=C(Nc1nc(-c2ccco2)c(C(=O)c2ccn(Cc3ccccc3)c2)s1)c1ccncc1` [Compound 263, N-[5-(1-Benzylpyrrol-3-ylcarbonyl)-4-(2-furyl)thiazol-2-yl]pyridine-4-carboxamide], for which the melting point was 175 to 178 °C.

Compound `Cn1cc(C(=O)c2sc(NC(=O)c3ccncc3)nc2-c2ccco2)ccc1=O` [Compound 267, N-[4-(2-Furyl)-5-(1-methyl-2-oxo-1,2-dihydropyridin-5-ylcarbonyl)thiazol-2-yl]pyridine-4-carboxamide] came in with a melting point of 294 to 295 °C. Take `CCn1cc(C(=O)c2sc(NC(=O)c3ccncc3)nc2-c2ccco2)ccc1=O` [Compound 269, N-[5-(1-Ethyl-2-oxo-1,2-dihydropyridin-5-ylcarbonyl)-4-(2-furyl)thiazol-2-yl]pyridine-4-carboxamide]: the melting point lay in the range of 295 to 296 °C. Regarding `O=C(Nc1nc(-c2ccco2)c(C(=O)c2ccc(=O)n(Cc3ccccc3)c2)s1)c1ccncc1` [Compound 271, N-[5-(1-Benzyl-2-oxo-1,2-dihydropyridin-5-ylcarbonyl)-4-(2-furyl)thiazol-2-yl]pyridine-4-carboxamide], the melting point is 265 to 282 °C (dec.).

Consider `Cn1ccc(C(=O)c2sc(NC(=O)c3ccncc3)nc2-c2ccco2)cc1=O` [Compound 274, N-[4-(2-Furyl)-5-(1-methyl-2-oxo-1,2-dihydropyridin-4-ylcarbonyl)thiazol-2-yl]pyridine-4-carboxamide], for which the melting point was 243 to 255 °C (dec.).

Turning to `CCn1ccc(C(=O)c2sc(NC(=O)c3ccncc3)nc2-c2ccco2)cc1=O` [Compound 276, N-[5-(1-Ethyl-2-oxo-1,2-dihydropyridin-4-ylcarbonyl)-4-(2-furyl)thiazol-2-yl]pyridine-4-carboxamide], the melting point lay in the range of 277 to 281 °C. Regarding `O=C(Nc1nc(-c2ccco2)c(C(=O)c2ccn(Cc3ccccc3)c(=O)c2)s1)c1ccncc1` [Compound 278, N-[5-(1-Benzyl-2-oxo-1,2-dihydropyridin-4-ylcarbonyl)-4-(2-furyl)thiazol-2-yl]pyridine-4-carboxamide], the melting point was 288 to 291 °C.

For the compound `O=C(Nc1nc(-c2ccco2)c(C(=O)c2cnccn2)s1)c1ccncc1` [Compound 281, N-[4-(2-Furyl)-5-(pyrazin-2-ylcarbonyl)thiazol-2-yl]pyridine-4-carboxamide], the melting point is more than 300 °C. As for `O=C(Nc1nc(-c2ccco2)c(C(=O)c2ccncn2)s1)c1ccncc1` [Compound 282, N-[4-(2-Furyl)-5-(pyrimidine-4-ylcarbonyl)thiazol-2-yl]pyridine-4-carboxamide], the figure is more than 300 °C.
